Results on one compound are retold here after patent US9464056B2, “Fungicidal 4-methylanilino pyrazoles” (E. I. DU PONT DE NEMOURS AND COMPANY, priority 2012, dated 2016).

Molecules are shown by their SMILES.

As a reminder, the pest or weed control is the degree to which the test organism was suppressed or injured, in per cent. Read a high pest or weed control as strong suppression. As usually defined, the melting point is the temperature, or range, at which the solid turns liquid.

For one series, the system named is Septoria nodorum. Kind of series: Test C: preventive spray on wheat seedlings, Septoria nodorum (Septoria glume blotch), visual disease rating. Type of series: in vivo. The conditions noted are these: Parastagonospora nodorum, topical, 264 h, 100 = 100% disease control, 0 = no disease control relative to controls. The source says:
General protocol for preparing test suspensions for Tests A-H: the test compounds were first dissolved in acetone in an amount equal to 3% of the final volume and then suspended at the desired concentration (in ppm) in acetone and purified water (50/50 mix by volume) containing 250 ppm of the surfactant Trem® 014 (polyhydric alcohol esters). The resulting test suspensions were then used in Tests A-F. Spraying a 40 ppm test suspension to the point of run-off on the test plants was the equivalent of a rate of 160 g/ha. Unless otherwise indicated, the rating values indicate a 40 ppm test suspension was used. The test suspension was sprayed to the point of run-off on wheat seedlings. The following day the seedlings were inoculated with a spore suspension of Septoria nodorum (the causal agent of Septoria glume blotch) and incubated in a saturated atmosphere at 20° C. for 48 h, and then moved to a growth chamber at 20° C. for 9 days, after which time visual disease ratings were made. Results for Tests A-F are given in Table A. In the Table, a rating of 100 indicates 100% disease control and a rating of 0 indicates no disease control (relative to the controls). A dash (-) indicates no test results.

In a further series the test system is Septoria tritici. In words: Test D: preventive spray on wheat seedlings, Septoria tritici (wheat leaf blotch), visual disease rating. The conditions noted are these: Zymoseptoria tritici, topical, 504 h, 100 = 100% disease control, 0 = no disease control relative to controls. Type of series: in vivo. The text has this: General protocol for preparing test suspensions for Tests A-H: the test compounds were first dissolved in acetone in an amount equal to 3% of the final volume and then suspended at the desired concentration (in ppm) in acetone and purified water (50/50 mix by volume) containing 250 ppm of the surfactant Trem® 014 (polyhydric alcohol esters). The resulting test suspensions were then used in Tests A-F. Spraying a 40 ppm test suspension to the point of run-off on the test plants was the equivalent of a rate of 160 g/ha. Unless otherwise indicated, the rating values indicate a 40 ppm test suspension was used. The test suspension was sprayed to the point of run-off on wheat seedlings. The following day the seedlings were inoculated with a spore suspension of Septoria tritici (the causal agent of wheat leaf blotch) and incubated in saturated atmosphere at 24° C. for 48 h, and then moved to a growth chamber at 20° C. for 19 days, after which time visual disease ratings were made. Results for Tests A-F are given in Table A. In the Table, a rating of 100 indicates 100% disease control and a rating of 0 indicates no disease control (relative to the controls). A dash (-) indicates no test results.

In series [1] the test system is Puccinia recondita f. sp. tritici. Kind of series: Test E1: curative spray on wheat seedlings after inoculation, Puccinia recondita f. sp. tritici (wheat leaf rust), visual disease rating. Type of series: in vivo. To be noted: sprayed after inoculation (curative), 100 = 100% disease control, 0 = no disease control relative to controls. The source says:
General protocol for preparing test suspensions for Tests A-H: the test compounds were first dissolved in acetone in an amount equal to 3% of the final volume and then suspended at the desired concentration (in ppm) in acetone and purified water (50/50 mix by volume) containing 250 ppm of the surfactant Trem® 014 (polyhydric alcohol esters). The resulting test suspensions were then used in Tests A-F. Spraying a 40 ppm test suspension to the point of run-off on the test plants was the equivalent of a rate of 160 g/ha. Unless otherwise indicated, the rating values indicate a 40 ppm test suspension was used. Wheat seedlings were inoculated with a spore suspension of Puccinia recondita f. sp. tritici (the causal agent of wheat leaf rust) and incubated in a saturated atmosphere at 20° C. for 24 h, and then moved to a growth chamber at 20° C. for 2 days. After 2 days, the test suspension was sprayed to the point of run-off on the wheat seedlings, and then the seedlings were moved back to the growth chamber at 20° C. for 4 days. Upon removal, visual disease ratings were made. Results for Tests A-F are given in Table A. In the Table, a rating of 100 indicates 100% disease control and a rating of 0 indicates no disease control (relative to the controls). A dash (-) indicates no test results.

Series [2] has the same test system. In words: Test E2: preventive spray on wheat seedlings, Puccinia recondita f. sp. tritici (wheat leaf rust), visual disease rating. To be noted: topical, 192 h, 100 = 100% disease control, 0 = no disease control relative to controls. Type of series: in vivo. The source says: (§1) General protocol for preparing test suspensions for Tests A-H: the test compounds were first dissolved in acetone in an amount equal to 3% of the final volume and then suspended at the desired concentration (in ppm) in acetone and purified water (50/50 mix by volume) containing 250 ppm of the surfactant Trem® 014 (polyhydric alcohol esters). The resulting test suspensions were then used in Tests A-F. Spraying a 40 ppm test suspension to the point of run-off on the test plants was the equivalent of a rate of 160 g/ha. Unless otherwise indicated, the rating values indicate a 40 ppm test suspension was used. The test suspension was sprayed to the point of run-off on wheat seedlings. The following day the seedlings were inoculated with a spore suspension of Puccinia recondita f. sp. tritici (the causal agent of wheat leaf rust) and incubated in a saturated atmosphere at 20° C. for 24 h, and then moved to a growth chamber at 20° C. for 7 days, after which time visual disease ratings were made. Results for Tests A-F are given in Table A. In the Table, a rating of 100 indicates 100% disease control and a rating of 0 indicates no disease control (relative to the controls). A dash (-) indicates no test results.

For series [3], the system named is Blumeria graminis f. sp. tritici. Kind of series: Test F: preventive spray on wheat seedlings, Blumeria graminis f. sp. tritici (wheat powdery mildew), visual disease rating. It counts as in vivo. The conditions noted are these: topical, 192 h, 100 = 100% disease control, 0 = no disease control relative to controls.
Source text: as §1, with “spore dust” for “spore suspension”, “of Blumeria graminis” for “of Puccinia recondita”, “tritici (also known as Erysiphe graminis f. sp. tritici, the” for “tritici (the”, “wheat powdery mildew)” for “wheat leaf rust)”, “in” for “in a saturated atmosphere at 20° C. for 24 h, and then moved to”, “for 8” for “for 7”

`Cc1cc(F)c(Nc2c(-c3ccc(F)cc3Cl)c(C)nn2C)c(Br)c1` [Compound 1, N-(2-bromo-6-fluoro-4-methylphenyl)-4-(2-chloro-4-fluorophenyl)-1,3-dimethyl-1H-pyrazol-5-amine]: the melting point fell in the range of 132 to 133 °C. In addition, the pest or weed control at 40 µg/mL in the series on Septoria nodorum worked out at 90%. In the series with Septoria tritici, the pest or weed control at 40 µg/mL is 100%. The “Test E1 rating (% disease control)” value in series [1] came to 100. The same compound yielded a pest or weed control at 40 µg/mL in series [2] of 100%. The pest or weed control at 40 µg/mL in series [3] came out at 100%.
